Key:
[1] = tested on: Feacalibacterium prausnitzii; assay: Association of F. prausnitzii relative abundance at baseline with Cmax and AUC strata (logistic regression); parameters: species or system humans; conditions: liquid, solid, or combined; single dose phase I
Procedure: DNA was extracted from approximately 35 mg of each of the 451 fecal samples using the NucleoSpin Soil kit (Macherey-Nagel, 740780.250 M), following the manufacturer’s instructions. DNA yield was quantified using the Qubit 1X dsDNA Broad Range assay kit (Thermo Fisher Scientific, Q33266). For metagenomic shotgun sequencing, libraries were prepared with the MGIEasy Fast FS DNA Library Prep Set (MGI Tech Co., Ltd., 940-000030-00, Werheim, Germany), using 400 ng of DNA per sample. The library preparation process included DNA shearing for 12.5 min, followed by end repair, A-tailing, and magnetic bead-based cleanup. Adapter ligation and cleanup were then performed, followed by PCR amplification and magnetic bead-based size selection of the final library product. Library quality was assessed using the Qubit 1X dsDNA HS Assay Kit (Thermo Fisher Scientific, Q33231) and the Agilent High Sensitivity D1000 Assay Kit (Agilent Technologies, 5067–5584 and 5067–5585, Santa Clara, CA, USA). Pooled libraries were circularized, barcoded, and used as templates for DNA nanoball preparation. The nanoballs were then analyzed on the DNBSEQ-T7 platform (MGI Tech Co., Ltd.) using the DNBSEQ-T7RS High-throughput Sequencing Set (FCL PE150), according to the manufacturer’s guidelines.
Raw metagenomic reads underwent quality control to remove low-quality sequences, adapters, and contaminants using Fastp (version 0.23.2, default parameters). High-quality reads were filtered to exclude human reads (GRCh38_noalt_as) using Bowtie2 [38] (version 2.5.3). The quality-filtered reads were then aligned to the taxonomy database using MetaPhlAn (version 4.0.6, default parameters) to generate relative abundance profiles. For inclusion in the analysis, a species was required to be present in at least three samples.
For the seven metabolites AVE A, AVE B, AVA 2c, AVA 2f, AVA 2fd, AVA 2p, AVA 2pd analysed at phase I after the single dose of oat products, Cmax and area under the curve (AUC) were stratified based on less than the median or more or equal to the […]. Thereafter, for each metabolite, it was investigated whether the relative abundance of F. prausnitzii at baseline could predict the strata since this bacterium has previously been reported to be responsible for production of their dihydro-metabolites. Logistic regression with a binomial distribution and a logistic link function was used to separately analyze the liquid and solid products. When analyzing liquid and solid products together, a generalized linear mixed model with a binomial distribution and a logistic link function was used, with identity included as a random factor.

[2] = parameters: method as in PMID 39491249; conditions: in the presence of starch; cited from earlier work

| Structure (SMILES) | association between F. prausnitzii abundance at baseline and Cmax and AUC [1] | change of bioaccessibility [2] |
| --- | --- | --- |
| O=C(/C=C/c1ccc(O)c(O)c1)Nc1ccc(O)cc1C(=O)O [AVA 2c] | no significant associations | increased |
| O=C(/C=C/c1ccc(O)cc1)Nc1ccc(O)cc1C(=O)O [AVA 2p] | no significant associations | decreased |
| COc1cc(/C=C/C(=O)Nc2ccc(O)cc2C(=O)O)ccc1O [AVA 2f] | no significant associations | decreased |

Reference: PMC12418703, “Avenanthramides and avenacosides as biomarkers of oat intake: a pharmacokinetic study of solid and liquid oat consumption under single and repeated dose conditions” (Nutrition Journal, 2025)
